# Laboratory results from PubChem BioAssay (NCI).
# Where “and” joins values, the source holds several entries; their conditions need not be identical. Equal values may be shown once.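 96-well plates; 48 h exposure; 5 concentrations. Endpoints by linear interpolation between flanking doses. Not reached: highest tested concentration assigned. Here, GI50 denotes the concentration required for 50% inhibition of growth. The concentration for full growth arrest is given as TGI.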
# Key:
# Experiment in all cases: growth of human tumour cells (NCI), 48 h
# [1] = tested on: UACC-62 melanoma
# [2] = tested on: KM12 colon
# [3] = tested on: IGROV1 ovarian
# [4] = tested on: OVCAR-4 ovarian
# [5] = tested on: OVCAR-3 ovarian
# [6] = tested on: UACC-257 melanoma
# [7] = tested on: HCT-15 colon
# [8] = tested on: MALME-3M melanoma
# [9] = tested on: TK-10 renal
# [10] = tested on: NCI-H522 lung
# [11] = tested on: HOP-62 NSCLC
# [12] = tested on: UO-31 renal
# [13] = tested on: M14 melanoma
# [14] = tested on: NCI-H226 lung
# [15] = tested on: OVCAR-5 ovarian
# [16] = tested on: LXFL 529 NSCLC
# [17] = tested on: SF-539 CNS
# [18] = tested on: SR leukemia
# [19] = tested on: EKVX NSCLC
# [20] = tested on: SK-MEL-28 melanoma
# [21] = tested on: SK-MEL-2 melanoma
# [22] = tested on: SW-620 colon
# [23] = tested on: HCT-116 colon
# [24] = tested on: A549 NSCLC
# [25] = tested on: NCI-H460 lung
# [26] = tested on: SF-268 CNS
# [27] = tested on: NCI-H23 lung
# [28] = tested on: SK-OV-3 ovarian
# [29] = tested on: MOLT-4 leukemia
# [30] = tested on: OVCAR-8 ovarian
smiles,measurement,setting,value
COc1cc(C2c3cc4c(cc3[C@@H](NC3CCN(Cc5ccccc5)CC3)C3COC(=O)[C@H]23)OCO4)cc(OC)c1O (stereo partly drawn),TGI,[1],1380 nM and 216 nM
same,TGI,[2],2230 nM and 1020 nM
same,TGI,[3],3590 nM and 567 nM
same,GI50,[4],209 nM and 1120 nM
same,TGI,[5],1560 nM and 1040 nM
same,GI50,[6],1420 nM and 256 nM
same,TGI,[6],11900 nM and 2120 nM
same,TGI,[7],536 nM and 432 nM
same,GI50,[8],238 nM and 113 nM
same,TGI,[8],1600 nM and 1110 nM
same,GI50,[9],679 nM and 197 nM
same,TGI,[9],2560 nM and 608 nM
same,GI50,[10],82.7 nM
same,TGI,[10],321 nM
same,TGI,[11],206 nM and 146 nM
same,GI50,[12],214 nM and 87.9 nM
same,TGI,[12],1110 nM and 275 nM
same,GI50,[13],180 nM and 48.4 nM
same,TGI,[13],744 nM and 346 nM
same,TGI,[14],101 nM and 53.5 nM
same,TGI,[15],1510 nM
same,GI50,[16],1100 nM and 438 nM
same,TGI,[16],4400 nM and 2720 nM
same,TGI,[17],263 nM and 194 nM
same,TGI,[18],20 nM
same,GI50,[19],369 nM and 783 nM
same,TGI,[19],2430 nM and 3960 nM
same,TGI,[20],2840 nM and 1570 nM
same,GI50,[21],1050 nM and 239 nM
same,TGI,[21],2770 nM and 496 nM
same,GI50,[22],232 nM and 76 nM
same,TGI,[22],2420 nM and 1080 nM
same,TGI,[23],2280 nM and 1590 nM
same,TGI,[24],178 nM
same,GI50,[25],< 10 nM
same,TGI,[25],194 nM and 116 nM
same,TGI,[26],1980 nM and 584 nM
same,GI50,[27],126 nM and 40.6 nM
same,TGI,[27],623 nM and 224 nM
same,TGI,[28],445 nM and 503 nM
same,GI50,[29],< 10 nM
same,TGI,[29],12.9 nM and 25.8 nM
same,TGI,[30],587 nM
